Earlier results as cited in US20220206017A1, “AEROBIC GLYCOLYSIS AND HYPERMETABOLIC STATES” (priority 2022, published 2022).

Tests used:
[1] = target: T1, hexokinase II (Homo sapiens, UniProt P52789); details: inhibition of hexokinase II; reported value
T1 sequence (P52789 1-917): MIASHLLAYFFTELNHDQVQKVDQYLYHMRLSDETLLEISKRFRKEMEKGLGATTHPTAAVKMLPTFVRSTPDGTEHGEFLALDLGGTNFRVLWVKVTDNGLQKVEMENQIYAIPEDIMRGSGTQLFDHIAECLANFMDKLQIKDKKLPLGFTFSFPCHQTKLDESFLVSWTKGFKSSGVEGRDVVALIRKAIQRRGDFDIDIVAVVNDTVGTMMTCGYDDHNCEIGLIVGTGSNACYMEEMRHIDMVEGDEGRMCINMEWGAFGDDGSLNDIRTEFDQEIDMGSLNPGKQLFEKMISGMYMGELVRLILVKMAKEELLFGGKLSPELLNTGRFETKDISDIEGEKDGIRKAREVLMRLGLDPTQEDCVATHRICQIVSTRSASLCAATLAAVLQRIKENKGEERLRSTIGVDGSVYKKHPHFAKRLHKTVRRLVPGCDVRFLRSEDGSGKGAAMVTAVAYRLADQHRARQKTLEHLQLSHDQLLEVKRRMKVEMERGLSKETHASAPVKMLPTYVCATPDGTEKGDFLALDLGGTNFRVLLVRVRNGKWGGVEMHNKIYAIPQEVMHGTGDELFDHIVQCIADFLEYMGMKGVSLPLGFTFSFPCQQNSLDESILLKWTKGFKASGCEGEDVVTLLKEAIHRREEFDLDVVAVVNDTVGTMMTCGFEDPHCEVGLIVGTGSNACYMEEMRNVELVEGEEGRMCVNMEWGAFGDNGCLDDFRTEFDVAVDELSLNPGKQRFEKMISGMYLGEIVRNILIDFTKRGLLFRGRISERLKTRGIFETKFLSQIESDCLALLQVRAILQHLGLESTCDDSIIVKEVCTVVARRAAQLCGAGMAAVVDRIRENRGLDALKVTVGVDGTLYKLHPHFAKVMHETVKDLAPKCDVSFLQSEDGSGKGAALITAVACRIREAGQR

[2] = 3BP and DCA intravenous; 2DG oral
[3] = test system: Red blood cells (RBC); details: monotherapy at known clinical doses
[4] = test system: melanoma; details: in vivo; compared to L-Lactic Acid Dimer (LLAD) and phosphate buffered saline control; FIG. 3, ref [4]

Row | SMILES | Ki [1] [µM] | side effects of administration / clinical use [2] | RBC hemolysis [3] | melanoma cytotoxicity as measured by Ki-67 nuclei [4]
1 | O=CC[C@@H](O)[C@H](O)[C@H](O)CO [2DG, 2-Deoxy-D-Glucose] | 2900 | generally well tolerated | does not cause RBC hemolysis | 
2 | O=C(O)C(=O)CBr [3BP, 3-Bromopyruvate] |  | pain and phlebitis |  | 
3 | O=C(O)C(Cl)Cl [DCA, Dichloroacetate] |  | neurotoxicity |  | 
4 | C[C@@H](O)C(=O)O[C@H](C)C(=O)O [DLAD, D-Lactic Acid Dimer] |  |  |  | impressive melanoma cytotoxicity
